This is an account of results in patent US20200405696A1, “INHIBITORS OF INDOLEAMINE 2,3-DIOXYGENASE AND/OR TRYPTOPHAN 2,3-DIOXYGENASE” (IDORSIA PHARMACEUTICALS LTD, priority 2018, published 2020).

In experiment [1] the target is T1, Recombinant full-length human IDO1 (Homo sapiens, UniProt P14902).
T1 construct: Recombinant full-length human IDO1 with a N-terminal hexahistidine tag; hexahistidine (His6) (N); made in house; host or cells: E. coli
Briefly: IDO1 enzymatic assay (NFK quantified by LCMS). The class given is biochemical. Conditions: 2 nM enzyme, 5 μM L-tryptophan, pH6.5, 30 minutes pre-incubation at RT; mean values when measured multiple times; read-out: hIDO activity (IC50 in nM). The gist of the method:
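IC50 comes from four-parameter logistic fits of duplicate data, with NFK quantified by LCMS and normalized to L-Trp-(indole-d5). Compound (0.5 nM–10 μM) was preincubated 30 min at RT with 2 nM E. coli-expressed IDO1 before a 30 min reaction with 5 μM tryptophan in pH 6.5 buffer containing ascorbate and methylene blue.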

The target of experiment [2] is T2, Recombinant human TDO comprising amino acids 19-407 (Homo sapiens, UniProt P48775).
T2 construct: Recombinant human TDO comprising amino acids 19-407 with a N-terminal hexahistidine tag; hexahistidine (His6) (N); made in house; host or cells: E. coli
T2 sequence (P48775 19-406 limits assumed): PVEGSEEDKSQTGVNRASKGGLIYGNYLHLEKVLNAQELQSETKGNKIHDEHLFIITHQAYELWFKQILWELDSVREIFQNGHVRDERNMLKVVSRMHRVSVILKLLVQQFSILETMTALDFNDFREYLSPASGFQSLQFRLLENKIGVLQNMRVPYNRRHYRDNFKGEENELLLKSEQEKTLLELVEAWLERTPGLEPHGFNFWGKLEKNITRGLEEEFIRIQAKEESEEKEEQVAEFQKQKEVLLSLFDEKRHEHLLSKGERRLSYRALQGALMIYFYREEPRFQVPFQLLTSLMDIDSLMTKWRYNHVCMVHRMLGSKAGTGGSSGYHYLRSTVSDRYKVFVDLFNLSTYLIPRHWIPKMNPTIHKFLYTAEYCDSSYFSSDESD
The experiment can be described thus: TDO2 enzymatic assay (NFK quantified by LCMS). Type of experiment: biochemical. Conditions: 15 nM enzyme, 200 μM L-tryptophan, pH7, 30 minutes pre-incubation at RT; mean values when measured multiple times; read-out: hTDO activity (IC50 in nM). The gist of the method: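 NFK formed over 30 min at RT from 200 μM L-tryptophan was measured by LCMS, normalized to d5-tryptophan, after compound (0.5 nM–10 μM, duplicates, 0.6% DMSO) was preincubated 30 min with 15 nM recombinant His-tagged TDO 19-407 in phosphate buffer pH 7. IC50 from four-parameter logistic fit; repeats averaged.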

T1 sequence (P14902 whole entry): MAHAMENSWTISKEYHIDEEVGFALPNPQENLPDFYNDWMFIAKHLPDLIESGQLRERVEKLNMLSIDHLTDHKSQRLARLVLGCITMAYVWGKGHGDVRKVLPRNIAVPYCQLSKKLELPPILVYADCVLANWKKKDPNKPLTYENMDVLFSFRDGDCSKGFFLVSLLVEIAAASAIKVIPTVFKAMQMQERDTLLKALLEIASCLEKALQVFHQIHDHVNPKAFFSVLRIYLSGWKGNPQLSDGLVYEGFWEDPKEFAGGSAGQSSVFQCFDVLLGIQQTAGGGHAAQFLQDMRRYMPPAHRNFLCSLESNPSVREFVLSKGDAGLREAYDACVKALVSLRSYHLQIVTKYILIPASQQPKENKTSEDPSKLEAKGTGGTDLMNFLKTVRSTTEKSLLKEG

As a reminder, the IC50 is the midpoint of a concentration-inhibition curve. Consider `NC(=O)c1ccc(-n2cc(C(O)c3c(C4CC4)sc4cncn34)nn2)cc1` (racemic) [Example 185, rac-4-{4-[(2-Cyclopropyl-imidazo[5,1-b]thiazol-3-yl)-hydroxy-methyl]-[1,2,3]triazol-1-yl}-benzamide], for which the IC50 was 14.9 nM in experiment [1] and greater than 10200 nM in experiment [2].

Consider `Oc1cccc(Cn2cc(C(O)c3c(C4CC4)sc4cncn34)nn2)c1` (racemic) [Example 298, rac-3-{4-[(2-Cyclopropyl-imidazo[5,1-b]thiazol-3-yl)-hydroxy-methyl]-[1,2,3]triazol-1-ylmethyl}-phenol], for which the IC50 in experiment [1] was 23.3 nM; in experiment [2], greater than 10200 nM.

On to `CCc1sc2cncn2c1C(O)c1cn(-c2ccc(S(=O)(=O)N(C)C)cc2)nn1` (racemic) [Example 241, rac-4-{4-[(2-Ethyl-imidazo[5,1-b]thiazol-3-yl)-hydroxy-methyl]-[1,2,3]triazol-1-yl}-N,N-dimethyl-benzenesulfonamide], for which the figures for the IC50 in experiment [1] and in experiment [2] were 66 nM and greater than 10200 nM, respectively.

As for `COCCCNC(=O)c1ccc(-n2cc(C(O)c3c(C4CC4)sc4cncn34)nn2)cc1` (racemic) [Example 106, rac-4-{4-[(2-Cyclopropyl-imidazo[5,1-b]thiazol-3-yl)-hydroxy-methyl]-[1,2,3]triazol-1-yl}-N-(3-methoxy-propyl)-benzamide], the IC50 in experiment [1] was 19.6 nM; in experiment [2], greater than 10200 nM.

On to `OC(c1cn(-c2ccccc2)nn1)c1c(C2CC2)sc2cncn12` (racemic) [Example 2, rac-(2-Cyclopropyl-imidazo[5,1-b]thiazol-3-yl)-(1-phenyl-1H-[1,2,3]triazol-4-yl)-methanol], for which the IC50 in experiment [1] was 28.1 nM; in experiment [2] it was greater than 10200 nM.

Consider `OCC1(c2ccc(-n3cc(C(O)c4c(C5CC5)sc5cncn45)nn3)cc2)CC1` (racemic) [Example 40, rac-(2-Cyclopropyl-imidazo[5,1-b]thiazol-3-yl)-{1-[4-(1-hydroxymethyl-cyclopropyl)-phenyl]-1H-[1,2,3]triazol-4-yl}-methanol], for which the IC50 in experiment [1] is 68.3 nM; in experiment [2], greater than 10200 nM.

On to `CN(C)CCOc1ccc(-n2cc(C(O)c3c(C4CC4)sc4cncn34)nn2)cc1` (racemic) [Example 204, rac-(2-Cyclopropyl-imidazo[5,1-b]thiazol-3-yl)-{1-[4-(2-dimethylamino-ethoxy)-phenyl]-1H-[1,2,3]triazol-4-yl}-methanol], for which the figures for the IC50 in experiment [1] and in experiment [2] were 292 nM and greater than 10200 nM, respectively.

Consider `CC1NS(=O)(=O)c2ccc(-n3cc(C(O)c4c(C5CC5)sc5cncn45)nn3)cc21` (stereo not shown) [Example 228, (2-Cyclopropyl-imidazo[5,1-b]thiazol-3-yl)-[1-(3-methyl-1,1-dioxo-2,3-dihydro-1H-1I6-benzo[d]isothiazol-5-yl)-1H-[1,2,3]triazol-4-yl]-methanol], for which the IC50 in experiment [1] is 76.1 nM; in experiment [2] it was greater than 10200 nM.

Regarding `COCCNC(=O)c1ccc(-n2cc(C(O)c3c(C4CC4)sc4cncn34)nn2)cc1` (racemic) [Example 102, rac-4-{4-[(2-Cyclopropyl-imidazo[5,1-b]thiazol-3-yl)-hydroxy-methyl]-[1,2,3]triazol-1-yl}-N-(2-methoxy-ethyl)-benzamide], the IC50 is 23.2 nM in experiment [1] and greater than 10200 nM in experiment [2].

As for `COc1ccc(-n2cc(C(O)c3c(/C=C/C4CC4)sc4cncn34)nn2)cc1` (racemic) [Example 270, rac-[2-((E)-2-Cyclopropyl-vinyl)-imidazo[5,1-b]thiazol-3-yl]-[1-(4-methoxy-phenyl)-1H-[1,2,3]triazol-4-yl]-methanol], the figures for the IC50 in experiment [1] and in experiment [2] were 71.5 nM and greater than 10200 nM, respectively.

Regarding `COC(=O)c1ccc(Cn2cc(C(O)c3c(C4CC4)sc4cncn34)nn2)cc1` (racemic) [Example 297, rac-4-{4-[(2-Cyclopropyl-imidazo[5,1-b]thiazol-3-yl)-hydroxy-methyl]-[1,2,3]triazol-1-ylmethyl}-benzoic acid methyl ester], the IC50 in experiment [1] was 16 nM; in experiment [2] it was greater than 10200 nM.

With `C=C(C)c1sc2cncn2c1C(O)c1cn(-c2ccc(OC)cc2)nn1` (racemic) [Example 269, rac-(2-Isopropenyl-imidazo[5,1-b]thiazol-3-yl)-[1-(4-methoxy-phenyl)-1H-[1,2,3]triazol-4-yl]-methanol], the IC50 was 7.26 nM in experiment [1] and greater than 10200 nM in experiment [2].

Turning to `Oc1ccc(-n2cc(C(O)c3c(C4CC4)sc4cncn34)nn2)cc1Cl` (racemic) [Example 148, rac-2-Chloro-4-{4-[(2-cyclopropyl-imidazo[5,1-b]thiazol-3-yl)-hydroxy-methyl]-[1,2,3]triazol-1-yl}-phenol], the values for the IC50 in experiment [1] and in experiment [2] were 4.31 nM and 5130 nM, respectively.

`CCc1sc2cncn2c1C(O)c1cn(-c2ccc(NC(=O)C(C)(C)C)cc2)nn1` (racemic) [Example 120, rac-N-(4-{4-[(2-Ethyl-imidazo[5,1-b]thiazol-3-yl)-hydroxy-methyl]-[1,2,3]triazol-1-yl}-phenyl)-2,2-dimethyl-propionamide]: the IC50 was 11 nM in experiment [1] and greater than 10200 nM in experiment [2].

With `OC(c1cn(-c2ccc(OCC3CC3)cc2)nn1)c1c(C2CC2)sc2cncn12` (racemic) [Example 35, rac-(2-Cyclopropyl-imidazo[5,1-b]thiazol-3-yl)-[1-(4-cyclopropylmethoxy-phenyl)-1H-[1,2,3]triazol-4-yl]-methanol], the values for the IC50 in experiment [1] and in experiment [2] were 8.83 nM and greater than 10200 nM, respectively.

As for `O=S(=O)(c1ccc(-n2cc(C(O)c3c(C4CC4)sc4cncn34)nn2)cc1)N1CCCC1` (racemic) [Example 237, rac-(2-Cyclopropyl-imidazo[5,1-b]thiazol-3-yl)-{1-[4-(pyrrolidine-1-sulfonyl)-phenyl]-1H-[1,2,3]triazol-4-yl}-methanol], the IC50 in experiment [1] was 155 nM; in experiment [2], greater than 10200 nM.

On to `CC(C)Oc1ccc(-n2cc(C(O)c3c(C4CC4)sc4cncn34)nn2)cc1` (racemic) [Example 33, rac-(2-Cyclopropyl-imidazo[5,1-b]thiazol-3-yl)-[1-(4-isopropoxy-phenyl)-1H-[1,2,3]triazol-4-yl]-methanol], for which the IC50 is 20 nM in experiment [1] and greater than 10200 nM in experiment [2].

For `COc1cc(F)c(-n2cc(C(O)c3c(C4CC4)sc4cncn34)nn2)cc1F` (racemic) [Example 318, rac-(2-Cyclopropyl-imidazo[5,1-b]thiazol-3-yl)-[1-(2,5-difluoro-4-methoxy-phenyl)-1H-[1,2,3]triazol-4-yl]-methanol], the IC50 in experiment [1] was 2.99 nM; in experiment [2], greater than 10200 nM.

On to `Cc1sc2cncn2c1C(O)c1cnn(-c2ccccc2)c1` (racemic) [Example 96, rac-(2-Methyl-imidazo[5,1-b]thiazol-3-yl)-(1-phenyl-1H-pyrazol-4-yl)-methanol], for which the results for the IC50 in experiment [1] and in experiment [2] were 163 nM and 2530 nM, respectively.

On to `OC(c1cn(-c2ccc(OCCC3(O)CC3)cc2)nn1)c1c(C2CC2)sc2cncn12` (racemic) [Example 142, rac-1-[2-(4-{4-[(2-Cyclopropyl-imidazo[5,1-b]thiazol-3-yl)-hydroxy-methyl]-[1,2,3]triazol-1-yl}-phenoxy)-ethyl]-cyclopropanol], for which the IC50 in experiment [1] was 13.3 nM; in experiment [2], greater than 10200 nM.

Turning to `CCc1sc2cncn2c1C(O)c1cn(-c2ccc(C(=O)NCCO)cc2)nn1` (racemic) [Example 118, rac-4-{4-[(2-Ethyl-imidazo[5,1-b]thiazol-3-yl)-hydroxy-methyl]-[1,2,3]triazol-1-yl}-N-(2-hydroxy-ethyl)-benzamide], the IC50 is 15.8 nM in experiment [1] and 9550 nM in experiment [2].

Take `CN(C)C(=O)c1ccc(-n2cc(C(O)c3c(C4CC4)sc4cncn34)nn2)cc1` (racemic) [Example 195, rac-4-{4-[(2-Cyclopropyl-imidazo[5,1-b]thiazol-3-yl)-hydroxy-methyl]-[1,2,3]triazol-1-yl}-N,N-dimethyl-benzamide]: the results for the IC50 in experiment [1] and in experiment [2] were 145 nM and greater than 10200 nM, respectively.

Turning to `CC(C)(CO)COc1ccc(-n2cc(C(O)c3c(C4CC4)sc4cncn34)nn2)cc1` (racemic) [Example 141, rac-3-(4-{4-[(2-Cyclopropyl-imidazo[5,1-b]thiazol-3-yl)-hydroxy-methyl]-[1,2,3]triazol-1-yl}-phenoxy)-2,2-dimethyl-propan-1-ol], the concentration for half-maximal inhibition (IC50) in experiment [1] was 27.2 nM; in experiment [2], greater than 10200 nM.

In the case of `CCc1sc2cncn2c1[C@@H](O)c1cn(-c2ccc(NC(=O)OC)cc2)nn1` [Example 49a, (4-{4-[(R)-(2-Ethyl-imidazo[5,1-b]thiazol-3-yl)-hydroxy-methyl]-[1,2,3]triazol-1-yl}-phenyl)-carbamic acid methyl ester], the IC50 in experiment [1] came to 2.7 nM; in experiment [2], 1040 nM.

Take `Cc1c(C(O)c2c(C3CC3)sc3cncn23)nnn1-c1ccccc1` (racemic) [Example 101, rac-(2-Cyclopropyl-imidazo[5,1-b]thiazol-3-yl)-(5-methyl-1-phenyl-1H-[1,2,3]triazol-4-yl)-methanol]: the results for the IC50 in experiment [1] and in experiment [2] were 17 nM and 7150 nM, respectively.

For the compound `CNC(=O)c1ccc(-n2cc(C(O)c3c(C4CC4)sc4cncn34)nn2)cc1` (racemic) [Example 182, rac-4-{4-[(2-Cyclopropyl-imidazo[5,1-b]thiazol-3-yl)-hydroxy-methyl]-[1,2,3]triazol-1-yl}-N-methyl-benzamide], the IC50 was 26 nM in experiment [1] and greater than 10200 nM in experiment [2].
